What all share (type): cell-based
Settings in all cases: 1 μM compound, primary human umbilical vein endothelial cells, compound 24 hours, then TNF 5 ng/mL 6 hours; for inhibition at 1 µM: Homo sapiens, Endothelial cell

The test system of one test is E-Selectin. Put plainly: CAM ELISA: E-selectin expression on TNF-stimulated HUVECs. Here is the method: (§1) Pooled primary human umbilical vein endothelial cells (HtVEC's) (Clonetics) between passages 3 and 7 were plated in 96-well plates (Costar), 100 μL/well, 5×10^4 cells/mL in Clonetics EBM/2% FBS/EGF/Bovine brain extract/gentamicin in the absence of hydrocortisone. The following day, compounds of the invention were added in 10 μL/well medium, and the plates were incubated at 37° C. 24 hours after compound addition, TNF (Gibco/BRL) in 10 μL/well medium was added to a final concentration of 5 ng/mL, and the cells were incubated an additional 6 hours at 37° C. Then media was removed, and the plates were washed once with D-PBS (Gibco/BRL) and treated with primary antibodies (Becton Dickinson, City), 100 μL/well in D-PBS/2% BSA (Sigma)/0.01% azide. Primary antibodies at an initial concentration of 1 mg/mL were used at the following dilutions: anti-ELAM-1, 1:2000, anti-ICAM-1, 1:2000 and anti-VACM-1, 1:3000. Plates were stored overnight at 4° C., washed 3 times with D-PBS, and treated with secondary antibody (Jackson Labs), 100 μL/well 1:8000 dilution HRP-conjugated donkey anti-mouse IgG(H+L) in D-PBS/2%BSA. Plates were incubated a minimum of 1 hour at room temperature, washed 3 times with D-PBS and treated with 100 μL of orhto-phenylene diamine-2 HCl reagent per well. Plates were developed approximately 15 minutes and neutralized with 100 μL/well 1N sulfuric acid. Absorbance was read at 490 nm.
(In general: ELISA stands for enzyme-linked immunosorbent assay.)

Another test has as its system ICAM-1. Put plainly: CAM ELISA: ICAM-1 expression on TNF-stimulated HUVECs. Here is the method:
as §1

The test system of the next test is VCAM-1. Put plainly: CAM ELISA: VCAM-1 expression on TNF-stimulated HUVECs. The protocol: as §1

For orientation: inhibition means the percentage by which the read-out fell short of the control. A high value points to a response far below the control.

`NS(=O)(=O)c1cc2c(Oc3ccc(Cl)cc3)cncc2s1` [Example 120, 4-(4-Chlorophenoxy)thieno[2,3-c]pyridine-2-sulfonamide]: the inhibition at 1 µM in the test with E-Selectin was 72%; with ICAM-1 it was 72%; in the test on VCAM-1 it was 49%.
As to `CNC(=O)c1cc2c(Oc3ccc(-n4cccn4)cc3)cncc2s1` [Example 218, N-Methyl-4-[4-(1H-pyrazol-1-yl)phenoxy]thieno[2,3-c]pyridine-2-carboxamide], the figures for the inhibition at 1 µM in the test with E-Selectin, with ICAM-1 and in the test on VCAM-1 were 66%, 64% and 51%, respectively.
Regarding `Nc1nc(-c2cc3c(Oc4ccc(Cl)cc4)cncc3s2)no1` [Example 289, 3-[4-(4-Chlorophenoxy)thieno[2,3-c]pyridin-2-yl]-1,2,4-oxadiazol-5-amine], the inhibition at 1 µM worked out at 64% in the test with E-Selectin, 62% in the test with ICAM-1 and 52% in the test with VCAM-1.
On the same counts, the results for `CCOC(=O)c1cccc(Oc2cncc3sc(C(N)=O)cc23)c1` [Example 79, ethyl 3-[[2-(aminocarbonyl)thieno[2,3-c]pyridin-4-yl]oxy]benzoate] are 66%, 63% and 38%.
On to `NC(=O)c1cc2c(Oc3cccnc3)cncc2s1` [Example 170, 4-(3-Pyridinyloxy)thieno[2,3-c]pyridine-2-carboxamide], for which the inhibition at 1 µM came to 66% in the test with E-Selectin, 67% in the test on ICAM-1 and 53% with VCAM-1.
On the same counts, the results for `Cc1nnc(-c2cc3c(Oc4ccc(C(F)(F)F)cc4)cncc3s2)o1` [Example 290, 2-(5-Methyl-1,3,4-oxadiazol-2-yl)-4-[4-(trifluoromethyl)phenoxy]thieno[2,3-c]pyridine] are 42%, 53% and 48%.
As for `CC(C)(C)OC(=O)Nc1csc(-c2cc3c(Oc4ccc(Cl)cc4)cncc3s2)n1` [Example 294, tert-Butyl 2-[4-(4-Chlorophenoxy)thieno[2,3-c]pyridin-2-yl]-1,3-thiazol-4-ylcarbamate], the inhibition at 1 µM with E-Selectin came out at 46%; in the test with ICAM-1, 45%; in the test on VCAM-1, 24%.
Turning to `NC(=O)c1cc2c(-c3ccc(C(F)(F)F)cc3)cncc2s1` [Example 95, 4-[4-(trifluoromethyl)phenyl]thieno[2,3-c]pyridine-2-carboxamide], the values for the inhibition at 1 µM in the test with E-Selectin, with ICAM-1 and in the test on VCAM-1 were 85%, 71% and 61%, respectively.
For the compound `CNC(=O)c1cc2c(Oc3ccc(-c4cncn4C)cc3)cncc2s1` [Example 224, N-Methyl-4-[4-(1-methyl-1H-imidazol-5-yl)phenoxy]thieno[2,3-c]pyridine-2-carboxamide], the inhibition at 1 µM in the test with E-Selectin is 61%; in the test with ICAM-1, 55%; with VCAM-1 it was 41%.
As for `O=C(NCCO)c1cc2c(Oc3ccc(C(F)(F)F)cc3)cnc(Cl)c2s1` [Example 320], the “CAM ELISA % Inhibition at 1 μM E-Selectin” value with E-Selectin is 64%. Moreover, the “CAM ELISA % Inhibition at 1 μM ICAM-1” value in the test on ICAM-1 came to 67%. Also, in the test on VCAM-1, the “CAM ELISA % Inhibition at 1 μM VCAM-1” value stood at 55%.
For the compound `NC(=O)c1cc2c(C=Cc3ccccc3)cncc2s1` [Example 329, 4-(2-Phenylethenyl)thieno[2,3-c]pyridine-2-carboxamide], the inhibition at 1 µM worked out at 72% in the test on E-Selectin, 62% in the test on ICAM-1 and 64% in the test with VCAM-1.
Regarding `NC(=O)c1sc2cncc(Cl)c2c1N` [Example 301, 3-Amino-4-chlorothieno[2,3-c]pyridine-2-carboxamide], the inhibition at 1 µM in the test with E-Selectin turned out to be 44%; in the test with ICAM-1, 48%; with VCAM-1 it was 34%.
As for `NC(=O)c1cc2c(Oc3cccc(C(F)(F)F)c3)cncc2s1` [Example 184, 4-[3-(Trifluoromethyl)phenoxy]thieno[2,3-c]pyridine-2-carboxamide], the inhibition at 1 µM with E-Selectin was determined as 52%; in the test with ICAM-1, 56%; in the test with VCAM-1, 30%.
